Measurements taken from ChEMBL document CHEMBL3885861, “Open TG-GATES”.

Species: Rattus norvegicus
Assay: Open TG-GATES - Regimen: Single
Type: toxicity, organism-based, Sprague-Dawley
Design: regimen Single, gender Male, age 6 weeks
Conditions: in vivo, iv, route intravenous injection; for Eos / Fbg / Ht / Lym / MCH / MCHC / MCV / Mono / PT / Plat / RBC / Ret / Bas / Hb / Neu: tissue Blood; for KIDNEY_L / KIDNEY_R / KIDNEY_TOTAL: tissue Kidney; for LIVER: tissue Liver; for ALP / ALT / AST / CRE / DBIL / GLC / K / Na / RALB / TBIL / TC / TG / TP / gamma-GTP / LDH: tissue Plasma
[1] = 3 mg/kg, 3 h, dose level Middle
[2] = 3 mg/kg, 6 h, dose level Middle
[3] = 3 mg/kg, 9 h, dose level Middle
[4] = 3 mg/kg, 24 h, dose level Middle

Question: How did the Eos [1] turn out when `COc1cccc2c1C(=O)c1c(O)c3c(c(O)c1C2=O)C[C@@](O)(C(=O)CO)C[C@@H]3O[C@H]1C[C@H](N)[C@H](O)[C@H](C)O1` [DOXORUBICIN] was run?
Answer: 0.6%

Question: What about the Fbg [1] of the same compound?
Answer: 260.4 mg/dL

Question: And the Ht [1]?
Answer: 38%

Question: What about the Lym [1] of the same compound?
Answer: 78.6%

Question: What about the MCH [1] of the same compound?
Answer: 21.6 pg

Question: What about the MCHC [1] of the same compound?
Answer: 34.7%

Question: And the MCV [1]?
Answer: 62.4 fL

Question: What about the Mono [1] of the same compound?
Answer: 3.8%

Question: What about the PT [1] of the same compound?
Answer: 16.2 s

Question: And the Plat [1]?
Answer: 113.3 x10_4/uL

Question: And the RBC [1]?
Answer: 609.6 x10_4/ul

Question: What about the Ret [1] of the same compound?
Answer: 6.7%

Question: And the KIDNEY_L [1]?
Answer: 0.9 g

Question: And the KIDNEY_R [1]?
Answer: 0.9 g

Question: What about the KIDNEY_TOTAL [1] of the same compound?
Answer: 1.8 g

Question: What about the LIVER [1] of the same compound?
Answer: 9.4 g

Question: What about the ALP [1] of the same compound?
Answer: 1266.2 IU/L

Question: What about the ALT [1] of the same compound?
Answer: 43.2 IU/L

Question: And the AST [1]?
Answer: 80.2 IU/L

Question: What about the CRE [1] of the same compound?
Answer: 0.2 mg/dL

Question: What about the DBIL [1] of the same compound?
Answer: 0.002 mg/dL

Question: And the GLC [1]?
Answer: 174.2 mg/dL

Question: And the K [1]?
Answer: 4.1 meq/L

Question: What about the Na [1] of the same compound?
Answer: 141.2 meq/L

Question: What about the RALB [1] of the same compound?
Answer: 3 g/dL

Question: And the TBIL [1]?
Answer: 0.022 mg/dL

Question: What about the TC [1] of the same compound?
Answer: 65.6 mg/dL

Question: What about the TG [1] of the same compound?
Answer: 99.4 mg/dL

Question: What about the TP [1] of the same compound?
Answer: 5.1 g/dL

Question: What about the gamma-GTP [1] of the same compound?
Answer: 1 IU/L

Question: What about the TERMINAL_BW [2] of the same compound?
Answer: 208.1 g

Question: And the Bas [2]?
Answer: 0%

Question: And the Eos [2]?
Answer: 0.8%

Question: And the Fbg [2]?
Answer: 294 mg/dL

Question: What about the Ht [2] of the same compound?
Answer: 37.7%

Question: What about the Lym [2] of the same compound?
Answer: 79%

Question: And the MCH [2]?
Answer: 21.7 pg

Question: And the MCHC [2]?
Answer: 34.3%

Question: What about the MCV [2] of the same compound?
Answer: 63.3 fL

Question: What about the Mono [2] of the same compound?
Answer: 4.2%

Question: What about the PT [2] of the same compound?
Answer: 16 s

Question: What about the Plat [2] of the same compound?
Answer: 130.3 x10_4/uL

Question: And the RBC [2]?
Answer: 595.4 x10_4/ul

Question: And the Ret [2]?
Answer: 7%

Question: What about the KIDNEY_L [2] of the same compound?
Answer: 0.9 g

Question: And the KIDNEY_R [2]?
Answer: 0.9 g

Question: And the KIDNEY_TOTAL [2]?
Answer: 1.8 g

Question: And the LIVER [2]?
Answer: 8.4 g

Question: What about the ALP [2] of the same compound?
Answer: 1404.2 IU/L

Question: What about the AST [2] of the same compound?
Answer: 77.2 IU/L

Question: And the CRE [2]?
Answer: 0.1 mg/dL

Question: What about the DBIL [2] of the same compound?
Answer: 0.002 mg/dL

Question: What about the GLC [2] of the same compound?
Answer: 177 mg/dL

Question: What about the K [2] of the same compound?
Answer: 4 meq/L

Question: And the LDH [2]?
Answer: 128.2 IU/L

Question: What about the Na [2] of the same compound?
Answer: 140.6 meq/L

Question: And the RALB [2]?
Answer: 2.9 g/dL

Question: What about the TBIL [2] of the same compound?
Answer: 0.032 mg/dL

Question: And the TC [2]?
Answer: 73.2 mg/dL

Question: What about the TG [2] of the same compound?
Answer: 59.6 mg/dL

Question: And the TP [2]?
Answer: 5.1 g/dL

Question: What about the gamma-GTP [2] of the same compound?
Answer: 1.8 IU/L

Question: And the TERMINAL_BW [3]?
Answer: 210 g

Question: What about the Bas [3] of the same compound?
Answer: 0%

Question: What about the Eos [3] of the same compound?
Answer: 0.6%

Question: And the Fbg [3]?
Answer: 280.6 mg/dL

Question: And the Hb [3]?
Answer: 13 g/dL

Question: And the Ht [3]?
Answer: 38.2%

Question: And the Lym [3]?
Answer: 76%

Question: What about the MCH [3] of the same compound?
Answer: 21.1 pg

Question: And the MCHC [3]?
Answer: 34.2%

Question: What about the MCV [3] of the same compound?
Answer: 61.8 fL

Question: What about the Mono [3] of the same compound?
Answer: 4.2%

Question: And the Neu [3]?
Answer: 18%

Question: What about the PT [3] of the same compound?
Answer: 15.8 s

Question: What about the Plat [3] of the same compound?
Answer: 117 x10_4/uL

Question: What about the RBC [3] of the same compound?
Answer: 617.6 x10_4/ul

Question: And the Ret [3]?
Answer: 6.9%

Question: What about the KIDNEY_L [3] of the same compound?
Answer: 0.9 g

Question: What about the KIDNEY_R [3] of the same compound?
Answer: 0.9 g

Question: What about the KIDNEY_TOTAL [3] of the same compound?
Answer: 1.8 g

Question: And the LIVER [3]?
Answer: 8.1 g

Question: And the ALP [3]?
Answer: 1233.4 IU/L

Question: And the ALT [3]?
Answer: 33.2 IU/L

Question: And the AST [3]?
Answer: 69.2 IU/L

Question: What about the CRE [3] of the same compound?
Answer: 0.1 mg/dL

Question: And the DBIL [3]?
Answer: 0 mg/dL

Question: And the GLC [3]?
Answer: 186.8 mg/dL

Question: What about the K [3] of the same compound?
Answer: 4.3 meq/L

Question: And the Na [3]?
Answer: 140.6 meq/L

Question: What about the RALB [3] of the same compound?
Answer: 2.8 g/dL

Question: What about the TBIL [3] of the same compound?
Answer: 0.018 mg/dL

Question: And the TC [3]?
Answer: 71 mg/dL

Question: And the TG [3]?
Answer: 70.2 mg/dL

Question: What about the TP [3] of the same compound?
Answer: 5.1 g/dL

Question: And the gamma-GTP [3]?
Answer: 1.2 IU/L

Question: And the TERMINAL_BW [4]?
Answer: 215.4 g

Question: What about the Bas [4] of the same compound?
Answer: 0%

Question: And the Eos [4]?
Answer: 0.2%

Question: What about the Fbg [4] of the same compound?
Answer: 277.8 mg/dL

Question: And the Hb [4]?
Answer: 13.4 g/dL

Question: What about the Ht [4] of the same compound?
Answer: 37.4%

Question: What about the Lym [4] of the same compound?
Answer: 80.8%

Question: What about the MCH [4] of the same compound?
Answer: 21.6 pg

Question: And the MCHC [4]?
Answer: 35.7%

Question: And the MCV [4]?
Answer: 60.4 fL

Question: And the Mono [4]?
Answer: 4%

Question: And the Neu [4]?
Answer: 13.2%

Question: And the PT [4]?
Answer: 16.6 s

Question: What about the Plat [4] of the same compound?
Answer: 118.9 x10_4/uL

Question: And the RBC [4]?
Answer: 620 x10_4/ul

Question: What about the Ret [4] of the same compound?
Answer: 4.5%

Question: And the KIDNEY_L [4]?
Answer: 0.9 g

Question: And the KIDNEY_R [4]?
Answer: 0.9 g

Question: What about the KIDNEY_TOTAL [4] of the same compound?
Answer: 1.9 g

Question: And the ALP [4]?
Answer: 1504.4 IU/L

Question: And the AST [4]?
Answer: 68.2 IU/L

Question: And the CRE [4]?
Answer: 0.2 mg/dL

Question: What about the DBIL [4] of the same compound?
Answer: 0.002 mg/dL

Question: What about the GLC [4] of the same compound?
Answer: 191.4 mg/dL

Question: And the K [4]?
Answer: 4.5 meq/L

Question: What about the LDH [4] of the same compound?
Answer: 124.6 IU/L

Question: And the Na [4]?
Answer: 143 meq/L

Question: What about the RALB [4] of the same compound?
Answer: 3 g/dL

Question: And the TBIL [4]?
Answer: 0.018 mg/dL

Question: What about the TC [4] of the same compound?
Answer: 75 mg/dL

Question: And the TG [4]?
Answer: 88.6 mg/dL

Question: And the TP [4]?
Answer: 5.2 g/dL

Question: And the gamma-GTP [4]?
Answer: 1 IU/L

Question: What about the TERMINAL_BW (10 mg/kg, 3 h, dose level High) of the same compound?
Answer: 211.4 g

Question: What about the Bas (10 mg/kg, 3 h, dose level High) of the same compound?
Answer: 0%
